What was measured:
[1] = test system: subcutaneous K-ras G12D-expressing mouse fibroblast tumors; assay: Xenograft tumor size in mice; type: in vivo; conditions: 100-200 mg/kg once a day, 7 consecutive days, vs matched DMSO controls
Description: The effectiveness of one or more compounds of the invention (e.g., lanperisone) was evaluated in vivo using xenografts. The effect on xenograft tumor size was evaluated in mice by administering a compound of the invention at a dose of 100-200 mg/kg once a day (e.g., via oral administration in water). The compounds were also administered intraperitoneally. Mice harboring established, subcutaneous tumors measuring at least 1 cm were treated with lanperisone for 7 consecutive days. […] These findings confirm the in vivo efficacy of lanperisone in targeting K-ras mutant tumors.

[2] = test system: wild-type and K-rasG12D MEFs; assay: Gene expression profiling (GSEA, Connectivity Map); type: cell-based, mouse
Description: (§1) To study the selectivity of lanperisone for K-ras mutant cells, gene expression profiling experiments were carried out using wild-type and K-rasG12D MEFs treated with lanperisone or control DMSO. The gene expression signatures associated with lanperisone treatment were compared with those observed upon 1) manipulation of any of a number of defined biological pathways (i.e., Gene Set Enrichment Analysis or GSEA) and 2) treatment with small molecules with known targets including FDA-approved drugs (ie the Connectivity Map or CMAP). […] This mechanism of cell death occurs in both mouse and human cells, as well as in both fibroblast and epithelial cell lines.

[3] = test system: K-Ras mutant cells (cells with Kras G12D mutation); assay: FACS analysis of cell death and proliferation (Tunnel/PI staining, DNA content, BrdU staining); type: cell-based
Description: The effects of lanperisone on cell proliferation and cell death were evaluated based on a FACS analysis. Tunnel staining (for dying cells) and PI staining (excluded by living cells) were used to evaluate cell death in lanperisone and DMSO treated wild-type and K-Ras mutant cells (cells with a Kras G12D mutation).

[4] = test system: K-rasG12D-expressing cells; assay: Additional biochemical experiments on mechanism of cell death (reactive oxygen species); type: cell-based; conditions: mouse and human cells, fibroblast and epithelial cell lines
Description: as §1

K-Ras mutant cells = assay: BrdU cytoblot assay (proliferation by BrdU incorporation); type: cell-based, mouse; conditions: proliferation based upon incorporation of BrdU
From the text: (§2) The differential activity of tolperisone confirmed using other assays, such as BrdU cytoblot assay, which measures proliferation based upon incorporation of BrdU.

[5] = test system: mouse embryonic fibroblasts (MEFs) expressing oncogenic K-Ras; assay: Cell Titer Glo cell viability screen, mutant K-Ras vs wild-type MEFs; type: cell-based; conditions: cell viability by intracellular ATP
From the text: These MEFs have been extensively characterized at the molecular and cellular level. […] The inclusion of wild-type cells allowed for the elimination of general cytotoxic compounds and for the targeting of molecular pathways activated by oncogenic K-Ras.
as §2

Row | SMILES | tumor size at the end of the treatment period [1] | Connectivity Map connectivities with other classes of small molecules ([2]; calcium modulators, HDAC inhibitors, HIF activators) | GSEA pathway enrichment ([2]; lanperisone-treated MEFs vs DMSO) | cell cycle phase specificity of cell death (cellular DNA content) ([3]; FACS, FIG. 3B) | cellular proliferation (BrdU staining) ([3]; FACS, FIG. 3C) | cell death (Tunnel staining / PI staining) ([3]; at 6 hours, 10 μM and 20 μM, Kras G12D cells relative to wild-type cells) | mechanism of selective cell killing [4] | differential activity in BrdU cytoblot assay (K-Ras mutant cells) | concentration at which differential activity was shown (as low as) [5] [microns]
1 | C[C@H](CN1CCCC1)C(=O)c1ccc(C(F)(F)F)cc1 [lanperisone] | significantly smaller tumors than matched controls | Numerous connectivities | marked enrichment of hypoxia as well as oxidative stress pathways | not specific to any particular phase of the cell cycle | no specific defect in cellular proliferation | preferentially caused cell death in K-Ras mutant cells | selectively kills K-rasG12D-expressing cells by inducing reactive oxygen species | – | –
2 | Cc1ccc(C(=O)C(C)CN2CCCCC2)cc1 (stereo not drawn) [tolperisone] | – | – | – | – | – | – | – | confirmed | 5
